Assays:
Assay type in all cases: in vivo
[1] = system: ducksalad (Heteranthera limosa); test: Test B flooded paddy: ducksalad; details: Flood; 125 g ai/ha; applied to paddy water at 2-leaf stage; visually evaluated after 13 to 15 days
Summary of the method: (§1)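 Response scored visually, 0–100 relative to controls, 13–15 days after the compound was applied into paddy water; plants were at the 2-leaf stage in pots kept flooded to 3 cm.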

[2] = system: velvetleaf (Abutilon theophrasti); test: Test A pre-/postemergence: velvetleaf
Summary of the method: (§2)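 Seeds were sown in loam/sand blend and sprayed preemergence (directed soil spray) and, simultaneously, postemergence at 2–10 cm, one- to two-leaf stage, using compounds in non-phytotoxic solvent with surfactant. After ~10 days in greenhouse, injury was rated visually versus untreated controls, 0 (no effect) to 100 (complete control).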

rice (Oryza sativa) = test: Test B flooded paddy: rice; details: Flood; 125 g ai/ha; applied to paddy water at 2-leaf stage; visually evaluated after 13 to 15 days
Summary of the method: as §1

[3] = system: barnyardgrass (Echinochloa crus-galli); test: Test A pre-/postemergence: barnyardgrass
Summary of the method: as §2

[4] = system: crabgrass, large (large crabgrass, Digitaria sanguinalis); test: Test A pre-/postemergence: crabgrass, large
Summary of the method: as §2

[5] = system: foxtail, giant (giant foxtail, Setaria faberii); test: Test A pre-/postemergence: foxtail, giant
Summary of the method: as §2

[6] = system: pigweed (Amaranthus retroflexus); test: Test A pre-/postemergence: pigweed
Summary of the method: as §2

[7] = system: morningglory (Ipomoea spp.); test: Test A pre-/postemergence: morningglory
Summary of the method: as §2

[8] = system: wheat (Triticum aestivum); test: Test A pre-/postemergence: wheat
Summary of the method: as §2

corn (Zea mays) = test: Test A pre-/postemergence: corn
Summary of the method: as §2

[9] = system: barnyardgrass (Echinochloa crus-galli); test: Test B flooded paddy: barnyardgrass; details: Flood; 125 g ai/ha; applied to paddy water at 2-leaf stage; visually evaluated after 13 to 15 days
Summary of the method: as §1

[10] = system: sedge, umbrella (small-flower umbrella sedge Cyperus difformis); test: Test B flooded paddy: sedge, umbrella; details: Flood; 125 g ai/ha; applied to paddy water at 2-leaf stage; visually evaluated after 13 to 15 days
Summary of the method: as §1

[11] = Postemergence, 125 g ai/ha, 0 to 100 scale, 0 is no effect, 100 is complete control
[12] = Postemergence, 500 g ai/ha, visual rating on 0 to 100 scale (0 no effect, 100 complete control), approximately ten days
[13] = Preemergence, 125 g ai/ha, 0 to 100 scale where 0 is no effect and 100 is complete control
[14] = Preemergence, 500 g ai/ha, 0 to 100 scale (0 no effect, 100 complete control)
[15] = Postemergence, 500 g ai/ha, 0 to 100 scale, 0 is no effect, 100 is complete control

Row | Structure (SMILES) | Plant response rating, Ducksalad (0 to 100 scale, 0 is no effect, 100 is complete control) [1] | Plant response rating, Velvetleaf [2, 11] | Plant response rating, Velvetleaf [2, 13] | Plant response rating, Velvetleaf [2, 14] | Plant response rating, Rice (0 to 100 scale, 0 is no effect, 100 is complete control) (rice (Oryza sativa)) | Plant response rating, Barnyardgrass [3, 11] | Plant response rating, Barnyardgrass [3, 13] | Plant response rating, Barnyardgrass [3, 14] | Plant response rating, Crabgrass, Large [4, 11] | Plant response rating, Crabgrass, Large [4, 13] | Plant response rating, Crabgrass, Large [4, 14] | Plant response rating, Foxtail, Giant [5, 11] | Plant response rating, Foxtail, Giant [5, 13] | Plant response rating, Foxtail, Giant [5, 14] | Plant response rating, Pigweed [6, 11] | Plant response rating, Pigweed [6, 13] | Plant response rating, Pigweed [6, 14] | Plant response rating, Morningglory [7, 11] | Plant response rating, Wheat [8, 11] | Plant response rating, Wheat [8, 13] | also measured
1 | COCc1nn(-c2ccc(F)cc2)nc1Oc1ccnc(C(F)(F)F)c1 [Compound 161] | 0 | 40 | 0 | 50 | 20 | 30 | 20 | 60 | 70 | 100 | 100 | 60 | 100 | 100 | 100 | 100 | 100 | 30 | 10 | 0 | Velvetleaf plant response rating [2, 12]: 80; Barnyardgrass plant response rating [3, 12]: 70; Crabgrass, Large plant response rating [4, 12]: 90; Foxtail, Giant plant response rating [5, 12]: 90; Pigweed plant response rating [6, 12]: 100; Morningglory plant response rating [7, 12]: 50; Plant response rating, Morningglory [7, 13]: 10; Plant response rating, Morningglory [7, 14]: 10; Wheat plant response rating [8, 12]: 30; Plant response rating, Wheat [8, 14]: 10; Plant response rating, Corn (corn (Zea mays); [11]): 10; Corn plant response rating (corn (Zea mays); [12]): 30; Plant response rating, Corn (corn (Zea mays); [13]): 10; Plant response rating, Corn (corn (Zea mays); [14]): 10; Plant response rating, Barnyardgrass (0 to 100 scale, 0 is no effect, 100 is complete control) [9]: 0; Plant response rating, Sedge, Umbrella (0 to 100 scale, 0 is no effect, 100 is complete control) [10]: 80
2 | COc1nn(-c2ccc(F)cc2F)nc1Cc1ccnc(C(F)(F)F)c1 [Compound 165] | 40 | 40 | 0 | 10 | 20 | 40 | 30 | 100 | 70 | 100 | 100 | 60 | 90 | 100 | 100 | 100 | 100 | 60 | 20 | 0 | Velvetleaf plant response rating [2, 15]: 70; Barnyardgrass plant response rating [3, 15]: 90; Crabgrass, Large plant response rating [4, 15]: 90; Foxtail, Giant plant response rating [5, 15]: 90; Pigweed plant response rating [6, 15]: 100; Morningglory plant response rating [7, 15]: 80; Wheat plant response rating [8, 15]: 30; Plant response rating, Wheat [8, 14]: 0; Plant response rating, Corn (corn (Zea mays); [11]): 20; Corn plant response rating (corn (Zea mays); [15]): 30; Plant response rating, Corn (corn (Zea mays); [13]): 0; Plant response rating, Corn (corn (Zea mays); [14]): 10; Plant response rating, Barnyardgrass (0 to 100 scale, 0 is no effect, 100 is complete control) [9]: 10; Plant response rating, Sedge, Umbrella (0 to 100 scale, 0 is no effect, 100 is complete control) [10]: 70
